Measurements as given in PubChem BioAssay (NCI).
Where “and” joins values, the source holds several entries; their conditions need not be identical. Equal values may be shown once.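 Cultured in 96-well plates, cells were exposed to test compound for 48 hours across five concentrations. GI50 marks 50% less growth. Definition used: TGI = concentration required for complete inhibition of growth.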 Where a SMILES comes first, the peptide text is derived from it. [ ]: non-standard residue; d: D form. Ac5c = NC1(C(=O)O)CCCC1

Columns and labels:
Test in all cases: growth of human tumour cells (NCI), 48 h
[1] = system: SR leukemia
[2] = system: ACHN renal
[3] = system: SF-268 CNS
[4] = system: SK-MEL-5 melanoma
[5] = system: SNB-19 CNS
[6] = system: NCI-H522 lung
[7] = system: HCT-15 colon
[8] = system: BT-549 breast

Compound | TGI [1] [µM] | TGI [2] [µM] | TGI [3] [µM] | TGI [4] | TGI [5] [µM] | TGI [6] | TGI [7] [µM] | TGI [8] [µM] | GI50 [1] [µM] | GI50 [2] [µM] | GI50 [3] | GI50 [4] | GI50 [5] | GI50 [6] | GI50 [7] [µM] | GI50 [8] [µM]
NC1(C(=O)NC2(C(=O)O)CCCC2)CCCC1 (H-[Ac5c]-[Ac5c]-OH) | > 100 | > 100 | > 100 | > 100 µM | > 100 | > 100 µM | > 100 | > 100 |  |  |  |  |  |  |  | 
COc1cc(OC)c(/C=C/S(=O)(=O)Cc2cnc(OC)c(N)c2)c(OC)c1 | > 100 | > 100 | > 100 | 0.721 µM | > 100 |  | > 100 | > 74.6 | < 0.0143 | < 0.0233 | < 0.0328 µM | < 0.014 µM | < 0.0223 µM | < 0.01 µM | < 0.019 | < 0.0256
CCOC(=O)C(Cc1c[nH]c2ccc(N)cc12)(NC(C)=O)C(=O)OCC |  | > 1000 | > 1000 | > 1000 µM | > 1000 | > 1000 µM | > 1000 | > 1000 |  | > 1000 | > 1000 µM | > 1000 µM | > 1000 µM | > 1000 µM | > 1000 | 588
CN1CCN(CCCN)CC1 | > 100 | > 100 | > 100 | > 100 µM | > 100 | > 100 µM | > 100 | > 100 |  |  |  |  |  |  |  | 
Nc1ccc(N(S(=O)(=O)c2ccccc2)S(=O)(=O)c2ccccc2)c(Cl)c1 | > 100 | > 100 | > 100 | 50.4 µM | > 100 | > 100 µM | > 100 | > 100 |  |  |  |  |  |  |  | 
COC(=O)CCc1cc(OC)c2c(c1)C(C(=O)OC)C(c1ccc(OC)c(OC)c1)O2 (stereo unspecified) | > 100 | > 100 | > 100 | > 100 µM | > 100 | > 100 µM | > 100 | > 100 |  |  | > 100 µM and 37.9 µM | > 100 µM and 12 µM | > 100 µM and 15.8 µM | > 100 µM and 19.9 µM |  | 
CC(O)c1cccc(NCc2c3ccccc3c(=O)n3c2oc2ccccc23)c1 (stereo unspecified) | 12.1 | 13.5 | > 100 | 31.6 µM | 88.3 | 45.1 µM | 28.8 | 14.7 | 3.39 | 3.51 | > 100 µM | 4.87 µM | 16.4 µM | 5.55 µM | 5.56 | 3.95
COc1ccc([N+]2=NC(c3ccc([N+](=O)[O-])cc3)=NN(c3ccccc3)C2)cc1 | > 100 | > 100 | > 100 | 61.5 µM and 83.9 µM | > 100 | 5.87 µM and 10.5 µM | > 100 |  |  |  |  |  |  |  |  | 
O=c1c2c(nc3n1CCS3)[nH]c1ccccc12 |  | > 100 | > 100 | > 100 µM | > 100 | > 100 µM | > 100 |  |  | > 100 | > 100 µM | 2.75 µM | > 100 µM | > 100 µM | > 100 | 
CSc1nc(C)c2c(n1)SCC2 | > 10 | > 10 | > 10 | > 10 µM | > 10 |  | > 10 | > 10 |  |  |  |  |  |  |  | 
CCC1(CC)C(=O)OC(=O)C1(CC)CC | > 100 | > 100 | > 100 | > 100 µM | > 100 | > 100 µM | > 100 | > 100 |  |  |  |  |  |  |  | 
CC(C)(C#N)c1cc(Cn2cncn2)cc(C(C)(C)C#N)c1 |  |  | > 10000 | > 10000 µM | > 10000 | > 10000 µM | > 10000 | > 10000 |  |  | > 10000 µM | 106 µM | > 10000 µM | 2630 µM | > 10000 | 472
C=CCC(N[C@H](CO)c1ccccc1)c1ccc2ccccc2n1 (stereo partly specified) | > 100 | > 100 |  |  |  | > 100 µM | > 100 | > 100 | > 100 | > 100 |  |  |  | > 100 µM | > 100 | > 100
CC1C[C@@]2(c3ccccc3)C(=O)CCC[C@H]2N1 (stereo partly specified) | > 100 | > 100 | > 100 | > 100 µM | > 100 | > 100 µM |  |  |  |  |  |  |  |  |  | 
O=S(=O)(NC1=NCCN1C(=S)SN1CCn2c1nsc2=S)c1ccc(Br)cc1 | 74.1 | 73.6 | > 100 | 47.9 µM | > 100 | 36.8 µM | > 100 |  | 24.2 | 22.2 | 39.4 µM | 19.5 µM | > 100 µM | 15 µM | 31.8 | 
O=C1c2ccccc2-c2c1c1ccccc1c(=O)n2CCCNCCCn1ccnc1 |  | 0.879 | 23.2 | 1.68 µM | 13.1 | 9.29 µM | 10.1 | 7.11 |  | 0.252 | 3.12 µM | 0.379 µM | 1.47 µM | 1.66 µM | 0.44 | 1.07
COC(=O)c1cc2c(cc1Cl)SC(N(N(C)C)S(=O)(=O)c1ccc(Br)s1)=NS2(=O)=O | 35.4 | 54.1 | 67.3 | 29.4 µM | 58.4 | 42.1 µM | 33.6 |  | 13.3 | 24.2 | 27.4 µM | 15.8 µM | 21.2 µM | 17.9 µM | 18 | 
Cc1[nH]c2ccccc2c1C1Cc2ccccc2N1C(=O)/C=C\C(=O)O (stereo unspecified) | 85.7 | > 100 | 68.4 | 88.3 µM | 68.6 | 77.4 µM | > 100 |  |  |  |  |  |  |  |  | 
CCN(CC)CCC(=O)NC1c2ccc(Cl)cc2Oc2c(C)cccc21 (stereo unspecified) | 39.1 |  | 38.9 | 26.1 µM | 27.1 | 31.6 µM | 34.6 | 27.1 |  |  |  |  |  |  |  | 
CCOC(=O)c1cc(C#N)c(=O)n(/N=C(\C)c2ccncc2)c1O | > 100 | > 100 | > 100 | > 100 µM | > 100 |  | > 100 |  | > 100 | > 100 | > 100 µM | > 100 µM | > 100 µM |  | > 100 | 
